Reference: PubChem BioAssay AID248 (DTP/NCI, 2004)
Values joined by “and” are separate entries in the source; they are usually repeats but may differ in a detail not shown here. Identical values can stand only once. Toxic doses and inconclusive results are not listed. Rule as the data show it: active = T/C of 150% or more; inactive = T/C below 125%.

Test system: L1210 leukemia ip in BDF1 mice, survival T/C
Assay: NCI In Vivo Anticancer Drug Screen. Data for tumor model L1210 Leukemia (intraperitoneal) in B6D2F1 (BDF1) mice
Conditions: endpoint: mean survival time, higher = longer survival
Summary of the method: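 Read-out is survival time, reported as the treated-group measurement over the vehicle-control measurement.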

[1] = dose: 100.0 mg/kg/injection, schedule: Q04DX003 (ip), vehicle: saline with Tween-80
[2] = dose: 200.0 mg/kg/injection, schedule: Q04DX003 (ip), vehicle: saline with Tween-80
[3] = dose: 400.0 mg/kg/injection, schedule: Q04DX003 (ip), vehicle: saline with Tween-80
[4] = dose: 100.0 mg/kg/injection, schedule: Q04DX003 (ip), vehicle: saline
[5] = dose: 200.0 mg/kg/injection, schedule: Q04DX003 (ip), vehicle: saline
[6] = dose: 100.0 mg/kg/injection, schedule: Q01DX001 (ip), vehicle: saline
[7] = dose: 200.0 mg/kg/injection, schedule: Q01DX001 (ip), vehicle: saline
[8] = dose: 400.0 mg/kg/injection, schedule: Q01DX001 (ip), vehicle: saline
[9] = dose: 400.0 mg/kg/injection, schedule: Q04DX003 (ip), vehicle: saline
[10] = dose: 100.0 mg/kg/injection, schedule: Q01DX009 (ip), vehicle: saline
[11] = dose: 200.0 mg/kg/injection, schedule: Q01DX009 (ip), vehicle: saline
[12] = dose: 400.0 mg/kg/injection, schedule: Q01DX009 (ip), vehicle: saline
[13] = dose: 100.0 mg/kg/injection, schedule: Q04DX002 (ip), vehicle: saline
[14] = dose: 200.0 mg/kg/injection, schedule: Q04DX002 (ip), vehicle: saline

Measured: T/C

CN=C(NC1CCCCC1)c1ccc(NC(=O)c2ccc(C(=O)Nc3ccc(C(=NC)NC4CCCCC4)cc3)cc2)cc1
inactive: dose: 1.88 mg/kg/injection, schedule: Q01DX Z (ip), vehicle: saline 102 % of control | dose: 3.75 mg/kg/injection, schedule: Q01DX Z (ip), vehicle: saline 100 % of control | dose: 7.5 mg/kg/injection, schedule: Q01DX Z (ip), vehicle: saline 102 % of control

CC(=O)OC(c1ccccc1)C(C)C(OC(C)=O)(C(F)(F)F)C(F)(F)F (centres undefined)
inactive: dose: 100.0 mg/kg/injection, schedule: Q01DX009 (ip), vehicle: saline with Tween-80 102 % of control | [1] 102 % of control | dose: 200.0 mg/kg/injection, schedule: Q01DX009 (ip), vehicle: saline with Tween-80 98 % of control | [2] 94 % of control | dose: 400.0 mg/kg/injection, schedule: Q01DX009 (ip), vehicle: saline with Tween-80 100 % of control | [3] 93 % of control

c1ccc(N(c2ccccc2)[Si](c2ccccc2)(c2ccccc2)c2ccccc2)cc1
inactive: dose: 25.6 mg/kg/injection, schedule: Q04DX002 (ip), vehicle: saline with Tween-80 93 % of control | dose: 64.0 mg/kg/injection, schedule: Q04DX002 (ip), vehicle: saline with Tween-80 93 % of control | dose: 160.0 mg/kg/injection, schedule: Q04DX002 (ip), vehicle: saline with Tween-80 97 % of control | dose: 400.0 mg/kg/injection, schedule: Q04DX002 (ip), vehicle: saline with Tween-80 104 % of control

CC(C)OCCCN
inactive: dose: 100.0 mg/kg/injection, schedule: Q01DX001 (ip), vehicle: carboxymethylcellulose (CMC) 97 % of control | dose: 200.0 mg/kg/injection, schedule: Q01DX001 (ip), vehicle: carboxymethylcellulose (CMC) 97 % of control

CCN(CC)CC(O)Cn1cnc2c(N)ncnc21 (centres undefined)
inactive: dose: 50.0 mg/kg/injection, schedule: Q04DX003 (ip), vehicle: saline 104 % of control | [4] 111 % of control | [5] 93 % of control

S=P(Nc1ccccc1)(Nc1ccccc1)Oc1cc(Cl)c(Cl)cc1Cl
inactive: [6] 92 % of control | [7] 93 % of control | [8] 92 % of control

Cc1cc(Cl)c(OCC(=O)O)c(Cl)c1
inactive: [6] 92 % of control | [7] 92 % of control | [8] 94 % of control

CC(C)c1ccc(C(=S)N2CCOCC2)cc1
inactive: dose: 100.0 mg/kg/injection, schedule: Q04DX003 (ip), vehicle: Klucel (hydroxypropylcellulose) (HPC) 97 % of control | dose: 200.0 mg/kg/injection, schedule: Q04DX003 (ip), vehicle: Klucel (hydroxypropylcellulose) (HPC) 101 % of control | dose: 400.0 mg/kg/injection, schedule: Q04DX003 (ip), vehicle: Klucel (hydroxypropylcellulose) (HPC) 105 % of control

O=C(O)CNCc1ccccc1
inactive: [4] 102 % of control | [5] 96 % of control | [9] 96 % of control

C[N+](C)(C)Cc1ccc2ccccc2c1Br
inactive: dose: 50.0 mg/kg/injection, schedule: Q01DX001 (ip), vehicle: saline 97 % of control

CCCCCCCCCCCCCCCCCCNC(=O)Nc1cc(C(C)C)ccc1C
inactive: dose: 100.0 mg/kg/injection, schedule: Q01DX009 (ip), vehicle: other 86 % of control | dose: 200.0 mg/kg/injection, schedule: Q01DX009 (ip), vehicle: other 88 % of control | dose: 400.0 mg/kg/injection, schedule: Q01DX009 (ip), vehicle: other 99 % of control and 100 % of control

O=C(Nc1nc2ccccc2[nH]1)c1ccc(C(=O)Nc2nc3ccccc3[nH]2)cc1
inactive: dose: 15.0 mg/kg/injection, schedule: Q01DX Z (ip), vehicle: other 100 % of control | dose: 30.0 mg/kg/injection, schedule: Q01DX Z (ip), vehicle: other 100 % of control | dose: 60.0 mg/kg/injection, schedule: Q01DX Z (ip), vehicle: other 100 % of control | dose: 120.0 mg/kg/injection, schedule: Q01DX Z (ip), vehicle: other 97 % of control | dose: 180.0 mg/kg/injection, schedule: Q01DX Z (ip), vehicle: carboxymethylcellulose (CMC) 102 % of control | dose: 270.0 mg/kg/injection, schedule: Q01DX Z (ip), vehicle: carboxymethylcellulose (CMC) 96 % of control

NC(Cc1cc(O)c(O)c(S(=O)(=O)c2ccccc2)c1)C(=O)O (centres undefined)
inactive: dose: 87.5 mg/kg/injection, schedule: Q01DX009 (ip), vehicle: saline 98 % of control | dose: 175.0 mg/kg/injection, schedule: Q01DX009 (ip), vehicle: saline 96 % of control | dose: 350.0 mg/kg/injection, schedule: Q01DX009 (ip), vehicle: saline 107 % of control

O=c1[nH]nc(CCc2ccc([N+](=O)[O-])cc2)o1
inactive: [10] 93 % of control | [11] 94 % of control | [12] 104 % of control

Nc1ncnc(N)c1NC(=O)c1cc(OCc2ccccc2)cc(OCc2ccccc2)c1
inactive: dose: 100.0 mg/kg/injection, schedule: Q04DX003 (ip), vehicle: DMSO 94 % of control | dose: 200.0 mg/kg/injection, schedule: Q04DX003 (ip), vehicle: DMSO 102 % of control | dose: 400.0 mg/kg/injection, schedule: Q04DX003 (ip), vehicle: DMSO 86 % of control

C=C/C=C1\CCOC1=O
inactive: [6] 102 % of control | [10] 101 % of control and 112 % of control | [13] 100 % of control and 111 % of control | [4] 112 % of control | [7] 116 % of control | [11] 104 % of control and 118 % of control | [14] 104 % of control | [5] 100 % of control | [8] 110 % of control | [12] 107 % of control and 115 % of control | dose: 400.0 mg/kg/injection, schedule: Q04DX002 (ip), vehicle: saline 100 % of control and 102 % of control | [9] 115 % of control

NC(CCl)=NCCCN1CCOCC1
inactive: [13] 114 % of control | [14] 97 % of control

CC(=O)O[C@H]1CC[C@]2(C)[C@H]3CC[C@]4(C)[C@@H](OC(C)=O)CC[C@H]4[C@@H]3[C@@H](C)[C@]2(O)C1
inactive: dose: 50.0 mg/kg/injection, schedule: Q01DX001 (sc), vehicle: steriod suspending solution 102 % of control | dose: 100.0 mg/kg/injection, schedule: Q01DX001 (sc), vehicle: steriod suspending solution 100 % of control | dose: 200.0 mg/kg/injection, schedule: Q01DX001 (sc), vehicle: steriod suspending solution 102 % of control | dose: 400.0 mg/kg/injection, schedule: Q01DX001 (sc), vehicle: steriod suspending solution 105 % of control

CCCCCCCCCCCCCCCCCCNC(=O)Oc1ccc(Cl)c(C)c1
inactive: dose: 100.0 mg/kg/injection, schedule: Q01DX009 (ip), vehicle: Klucel (hydroxypropylcellulose) (HPC) 88 % of control | dose: 100.0 mg/kg/injection, schedule: Q04DX003 (ip), vehicle: gum acacia 88 % of control | dose: 200.0 mg/kg/injection, schedule: Q01DX009 (ip), vehicle: Klucel (hydroxypropylcellulose) (HPC) 92 % of control | dose: 200.0 mg/kg/injection, schedule: Q04DX003 (ip), vehicle: gum acacia 86 % of control | dose: 400.0 mg/kg/injection, schedule: Q01DX009 (ip), vehicle: Klucel (hydroxypropylcellulose) (HPC) 92 % of control | dose: 400.0 mg/kg/injection, schedule: Q04DX003 (ip), vehicle: gum acacia 89 % of control

C=C(Br)CN1CCCC1=O
inactive: dose: 75.0 mg/kg/injection, schedule: Q01DX009 (ip), vehicle: saline 98 % of control | dose: 150.0 mg/kg/injection, schedule: Q01DX009 (ip), vehicle: saline 106 % of control | dose: 300.0 mg/kg/injection, schedule: Q01DX009 (ip), vehicle: saline 114 % of control

CSc1nc2cc(C)c(C)cc2[nH]1
inactive: [1] 107 % of control | [2] 94 % of control | [3] 94 % of control
